Results reported in patent US12371454B2, “Cyclic peptide compound having Kras inhibitory action” (priority 2019, dated 2025).
Starred links: 1 amine or outer side, 2 acyl side, 3 side chain; linkers in the order of their positions; H or OH if unused. Positions of bridges follow the written chain, without caps; N, C: chain ends. Non-standard residues stand in square brackets, D forms with d. Residues, ends and D or L forms follow the SMILES beside them. *: point of attachment. hPhe(3-Cl-4-CF3) = N[C@@H](CCc1ccc(C(F)(F)F)c(Cl)c1)C(=O)O; NMeAbu(4,4,4-F3) = CN[C@@H](CC(F)(F)F)C(=O)O; NMePhe(4-Cl) = CN[C@@H](Cc1ccc(Cl)cc1)C(=O)O; NMePhe(4-Me) = CN[C@@H](Cc1ccc(C)cc1)C(=O)O; NMePhe(3-F) = CN[C@@H](Cc1cccc(F)c1)C(=O)O; NMePhe(4-F) = CN[C@@H](Cc1ccc(F)cc1)C(=O)O; NMedβ3hAla = C[C@H](CC(=O)[*:2])N(C)[*:1]; Phe(3-I) = N[C@@H](Cc1cccc(I)c1)C(=O)O; NMeAla(cPr) = CN[C@@H](CC1CC1)C(=O)O; NMeCha = CN[C@@H](CC1CCCCC1)C(=O)O; NMeGly(cPr) = CN[C@H](C(=O)O)C1CC1; NMeCba = CN[C@@H](CC1CCC1)C(=O)O; NMeChg = CN[C@H](C(=O)O)C1CCCCC1; NMeI = CC[C@H](C)[C@H](NC)C(=O)O; NMeD = CN[C@@H](CC(=O)O)C(=O)O; NMeL = CN[C@@H](CC(C)C)C(=O)O; NMeV = CN[C@H](C(=O)O)C(C)C; Pip = O=C(O)[C@@H]1CCCCN1; Morpholide = C1CN(*)CCO1; NMeA = CN[C@@H](C)C(=O)O; Nle = CCCC[C@H](N)C(=O)O; Piperidide = C1CCN(*)CC1; Ac5c = NC1(C(=O)O)CCCC1; Aze = O=C(O)[C@@H]1CCN1; Sar = CNCC(=O)O

Columns and labels:
[1] = biological target: T1, Kras and SOS1 (biotin-tagged human Kras loaded with GDP, His-tagged human SOS1) (Homo sapiens, UniProt P01116, G12D); test: Protein-protein interaction inhibition between Kras and SOS1 (KrasGl2D-SOS PPI) using AlphaScreen; type: binding; details: AlphaScreen; biotin-tagged human Kras loaded with GDP, His-tagged human SOS1; read-out: KRAS G12D-SOS PPI IC50
T1 construct: made in house; host or cells: E. coli (stated for Kras only)
T1 sequence (P01116 1-188 isoform P01116-2 G12D): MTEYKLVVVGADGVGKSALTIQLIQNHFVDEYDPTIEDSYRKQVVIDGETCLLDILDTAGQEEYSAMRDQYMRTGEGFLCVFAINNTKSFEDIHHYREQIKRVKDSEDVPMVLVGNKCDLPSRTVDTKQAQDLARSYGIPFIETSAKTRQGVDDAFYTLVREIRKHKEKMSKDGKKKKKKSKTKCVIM
Method in brief: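 Read-out is acceptor-bead light at 520-620 nm, arising when 680 nm-irradiated nickel donor beads pass singlet oxygen to streptavidin acceptors. The bead pair links His-tagged SOS1 with biotin-tagged, GDP-bound Kras from E. coli.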

[2] = tested on: Human pancreatic cancer cell line AsPC-1; test: Measurement of AsPC-1 cell growth inhibition (AsPC-1 CGI); type: cell-based; details: 96 h
Method in brief: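 AsPC-1 cells in 15% FBS RPMI-1640 were exposed to test compound for 96 hours at 37° C, with CellTiter-Glo as endpoint.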

Q: How did the IC50 [1] turn out when `CC[C@H](C)[C@@H]1NC(=O)[C@H](CC(C)C)N(C)C(=O)C[C@@H](C(=O)N2CCCCC2)N(C)C(=O)[C@H](CC2CCC2)N(C)C(=O)C2(CCCC2)NC(=O)[C@@H]2CCCN2C(=O)[C@H](CCc2ccc(C(F)(F)F)c(Cl)c2)NC(=O)CN(C)C(=O)[C@H](CC2CCCCC2)N(C)C(=O)CN(C)C(=O)CN(C)C1=O` [Compound 968] ([NMeL]I[Sar][Sar][NMeCha][Sar][hPhe(3-Cl-4-CF3)]P[Ac5c][NMeCba][NMeD]-Piperidide; lactam N-11) was run?
A: Its IC50 is 0.0031 µM.

Q: And the IC50 [2]?
A: The IC50 was 0.1 to 0.5 µM.

Q: `CC[C@H](C)[C@@H]1NC(=O)[C@H](C2CC2)N(C)C(=O)C[C@@H](C(=O)N2CCCCC2)N(C)C(=O)[C@H](C(C)C)N(C)C(=O)C2(CCCC2)NC(=O)[C@@H]2CCCN2C(=O)[C@H](CCc2ccc(C(F)(F)F)c(Cl)c2)NC(=O)CN(C)C(=O)[C@H](CC2CCCCC2)N(C)C(=O)CN(C)C(=O)CN(C)C1=O` [Compound 980] ([NMeGly(cPr)]I[Sar][Sar][NMeCha][Sar][hPhe(3-Cl-4-CF3)]P[Ac5c][NMeV][NMeD]-Piperidide; lactam N-11) was tested. Which IC50 [1] did it give?
A: Its IC50 is 0.0038 µM.

Q: What about the IC50 [2] of the same compound?
A: The IC50 was 0.1 to 0.5 µM.

Q: `CC[C@H](C)[C@@H]1NC(=O)[C@H](CC2CCCCC2)N(C)C(=O)C[C@@H](C(=O)N2CCCCC2)N(C)C(=O)[C@H](C2CCCCC2)N(C)C(=O)C2(CCCC2)NC(=O)[C@@H]2CCCN2C(=O)[C@H](CCc2ccc(C(F)(F)F)c(Cl)c2)NC(=O)CN(C)C(=O)[C@H](CC2CCCCC2)N(C)C(=O)CN(C)C(=O)CN(C)C1=O` [Compound 983] ([NMeCha]I[Sar][Sar][NMeCha][Sar][hPhe(3-Cl-4-CF3)]P[Ac5c][NMeChg][NMeD]-Piperidide; lactam N-11) was tested. Which IC50 [1] did it give?
A: Its IC50 is 0.0018 µM.

Q: And the IC50 [2]?
A: The IC50 was 0.1 to 0.5 µM.

Q: Which results are given for `CC[C@H](C)[C@@H]1NC(=O)[C@H](CC(C)C)N(C)C(=O)C[C@@H](C(=O)N2CCCCC2)N(C)C(=O)[C@H](C(C)C)N(C)C(=O)C2(CCCC2)NC(=O)[C@@H]2CCCN2C(=O)[C@H](CCc2ccc(C(F)(F)F)c(Cl)c2)NC(=O)CN(C)C(=O)[C@H](CC2CCCCC2)N(C)C(=O)[C@@H]2CCN2C(=O)[C@@H]2CCCCN2C1=O` [Compound 988] ([NMeL]I[Pip][Aze][NMeCha][Sar][hPhe(3-Cl-4-CF3)]P[Ac5c][NMeV][NMeD]-Piperidide; lactam N-11)?
A: IC50 [1]: 0.012 µM; IC50 [2]: 0.1 to 0.5 µM

Q: Which IC50 [1] does the source give for `CCCC[C@@H]1NC(=O)[C@H](Cc2cccc(I)c2)NC(=O)CN(C)C(=O)[C@H](Cc2ccc(Cl)cc2)N(C)C(=O)CN(C)C(=O)CN(C)C(=O)[C@H]([C@@H](C)CC)NC(=O)[C@H](CC(C)C)N(C)C(=O)C[C@@H](C(=O)N2CCCCC2)N(C)C(=O)[C@H](CC(C)C)NC(=O)[C@H](Cc2ccc(F)cc2)N(C)C1=O` [Compound 997] ([NMeL]I[Sar][Sar][NMePhe(4-Cl)][Sar][Phe(3-I)][Nle][NMePhe(4-F)]L[NMeD]-Piperidide; lactam N-11) here?
A: The IC50 was 0.024 µM.

Q: What about the IC50 [2] of the same compound?
A: Its IC50 is 0.1 to 0.5 µM.

Q: With `CC[C@H](C)[C@@H]1NC(=O)[C@H](CC(C)C)N(C)C(=O)C[C@@H](C(=O)N(C)C)N(C)C(=O)[C@H]([C@@H](C)CC)N(C)C(=O)C2(CCCC2)NC(=O)[C@H](Cc2cccc(F)c2)N(C)C(=O)[C@H](CCc2ccc(C(F)(F)F)c(Cl)c2)NC(=O)CN(C)C(=O)[C@H](Cc2ccc(C)cc2)N(C)C(=O)[C@@H]2CCN2C(=O)[C@H](C)N(C)C1=O` [Compound 1000] ([NMeL]I[NMeA][Aze][NMePhe(4-Me)][Sar][hPhe(3-Cl-4-CF3)][NMePhe(3-F)][Ac5c][NMeI][NMeD]-NMe2; lactam N-11) as the compound, how does the IC50 [1] read?
A: The IC50 was 0.0026 µM.

Q: And the IC50 [2]?
A: Its IC50 is 0.02 to 0.05 µM.

Q: For `CC[C@H](C)[C@@H]1NC(=O)[C@H](CC(F)(F)F)N(C)C(=O)C[C@@H](C(=O)N2CCOCC2)N(C)C(=O)[C@H](C2CCCCC2)N(C)C(=O)C2(CCCC2)NC(=O)[C@@H]2CCCN2C(=O)[C@H](CCc2ccc(C(F)(F)F)c(Cl)c2)NC(=O)CN(C)C(=O)[C@H](Cc2ccc(C)cc2)N(C)C(=O)CN(C)C(=O)CN(C)C1=O` [Compound 1001] ([NMeAbu(4,4,4-F3)]I[Sar][Sar][NMePhe(4-Me)][Sar][hPhe(3-Cl-4-CF3)]P[Ac5c][NMeChg][NMeD]-Morpholide; lactam N-11), which IC50 [1] is on record?
A: Its IC50 is 0.00044 µM.

Q: What about the IC50 [2] of the same compound?
A: Its IC50 is 0.02 to 0.05 µM.

Q: What does the source list for `CC[C@H](C)[C@@H]1NC(=O)[C@H](CC(C)C)N(C)C(=O)C[C@@H](C)N(C)C(=O)[C@H](CC2CC2)N(C)C(=O)C2(CCCC2)NC(=O)[C@@H]2CCCN2C(=O)[C@H](CCc2ccc(C(F)(F)F)c(Cl)c2)NC(=O)CN(C)C(=O)[C@H](CC2CCCCC2)N(C)C(=O)CN(C)C(=O)CN(C)C1=O` [Compound 1019] (cyclo([Ac5c][NMeAla(cPr)][NMedβ3hAla][NMeL]I[Sar][Sar][NMeCha][Sar][hPhe(3-Cl-4-CF3)]P))?
A: IC50 [1]: 0.014 µM; IC50 [2]: 0.1 to 0.5 µM
